Source: US12016357B2, “Glycoside compositions” (CARGILL, INCORPORATED, priority 2015, dated 2024)

How the values were obtained:
[1] = Trained sensory panel rating of sweetness intensity (SEV) and bitterness intensity, Example 1; type: in vivo; conditions: for Sweetness Avg. / Bitter Avg.: mean of five replicate tests; for Bitter Avg.: caffeine scale 1-15
Experimental: A sensory panel was trained to scale sweetness and bitterness. Reference tasting standards were prepared by dissolving respective standard material (sucrose for sweetness and caffeine for bitterness) into an aqueous citric acid buffer solution at pH 3.1 (distilled water containing 0.1% citric acid and 0.015% sodium citrate) according to the scale values shown in Table 1 below.
Solutions were made in the same citric acid buffer as the reference standard solutions. All solutions were heated to 55° C. for 12 minutes to ensure that all the glycoside material was completely dissolved. The solutions were allowed to cool to room temperature before serving to the panelists. Each solution was given a random 3-digit code and was served to the panelists in random order. Panelists dispensed 2 mL of each solution into their mouths from a pipette. The panelists were then asked to rate the “sweetness intensity” and “bitterness intensity” of the solutions and mark their responses on an un-anchored, 15 cm line scale. The length of the line corresponds to the scale values (1-15) on which the participants were trained. The panelists' responses were measured, compiled, and averaged for each sample. Each sample was tested by approximately 17 to 21 trained panelists.
In between testing samples, the panelists cleansed their palates with water and apple slices. The panelists also waited 5 minutes between each sample. Sweetness and bitter values of rebaudioside D (purity of 94.4%) and rebaudioside M (purity of […]) at varying concentrations were also obtained utilizing a sensory panel in a manner as described above. The sweetness is reported as sweetness and the sweetness is measured as a sucrose equivalent (SEV).
The sweetness and bitterness values of sweetener compositions containing Reb D or Reb M with other glycosides are shown in Tables 3-5. As described above, the samples were tasted by the panelist in random order. The tables show the concentration of the composition tested (ppm) as well as the ratio of one glycoside to another in the composition as a weight percentage.

[2] = Trained sensory panel rating of sweetness and bitterness intensity, Example 2 (measured values, S/B); type: in vivo; conditions: for Measured Bitterness / Measured Sweetness: citric acid buffer, scale 1-15; for Measured S/B: sweetness/bitterness ratio
Experimental: A trained sensory panel evaluated solutions of each rebaudioside D, rebaudioside M, rebaudioside G, rebaudioside O, rebaudioside N and rebaudioside E at 400 ppm and 600 ppm. Solutions were made in a citric acid buffer as the reference standard solutions described in Example 1. All solutions were heated to 55° C. for 12 minutes to ensure that all the glycoside material was completely dissolved. The solutions were allowed to cool to room temperature before serving to the panelists. Each solution was given a random 3-digit code and was served to the panelists in random order. Panelists dispensed 2 mL of each solution into their mouths from a pipette. The panelists were then asked to rate the “sweetness intensity” and “bitterness intensity” of the solutions and mark their responses on an un-anchored, 15 cm line scale. The length of the line corresponds to the scale values (1-15) on which the participants were trained. The panelists' responses were measured, compiled, and averaged for each sample (measured sweetness values and bitterness values). In between testing samples, the panelists cleansed their palates with water and apple slices. The panelists also waited 5 minutes between each sample. Rebaudioside D (purity of 94.4%) was obtained from ChromaDex™ Corp and rebaudioside M (purity 99.3%) was obtained from Cargill, Incorporated. Rebaudioside G (purity of 96.0%), Rebaudioside O (purity of 97.9%), Rebaudioside N (purity of 93.5%), Rebaudioside E (purity of 97.2%) were each obtained from ChromaaDex™ Corp. […] Also shown in Table 7 is the sweetness/bitterness ratios (S/B).

[3] = 400 ppm in citric acid buffer pH 3.1
[4] = 600 ppm in citric acid buffer pH 3.1
[5] = total blend 400 ppm, citric acid buffer pH 3.1

Structure (SMILES)	Sweetness Avg. [1, 3] [SEV]	Bitter Avg. [1, 3]	Sweetness Avg. [1, 4] [SEV]	Bitter Avg. [1, 4]	Measured Bitterness ([2]; 400 ppm)	Measured Sweetness ([2]; 400 ppm)	Measured S/B ([2]; 400 ppm)	Measured Bitterness ([2]; 600 ppm)	Measured Sweetness ([2]; 600 ppm)	Measured S/B ([2]; 600 ppm)	Bitter [1, 5]	Sweetness [1, 5] [SEV]
C=C1C[C@@]23CC[C@H]4[C@@](C)(CCC[C@@]4(C)C(=O)O[C@@H]4O[C@H](CO)[C@@H](O)[C@H](O)[C@H]4O[C@@H]4O[C@H](CO)[C@@H](O)[C@H](O)[C@H]4O)[C@@H]2CC[C@]1(O[C@@H]1O[C@H](CO)[C@@H](O)[C@H](O[C@@H]2O[C@H](CO)[C@@H](O)[C@H](O)[C@H]2O)[C@H]1O[C@@H]1O[C@H](CO)[C@@H](O)[C@H](O)[C@H]1O)C3 [Reb D, Rebaudioside D]	7.1	3.6	8.3	4.2	3.51	7.08	2.05	3.80	8.31	2.23	–	–
C=C1C[C@@]23CC[C@H]4[C@@](C)(CCC[C@@]4(C)C(=O)O[C@@H]4O[C@H](CO)[C@@H](O)[C@H](O)[C@H]4O[C@@H]4O[C@H](CO)[C@@H](O)[C@H](O)[C@H]4O)[C@@H]2CC[C@]1(O[C@@H]1O[C@H](CO)[C@@H](O)[C@H](O)[C@H]1O[C@@H]1O[C@H](CO)[C@@H](O)[C@H](O)[C@H]1O)C3 [Reb E, Rebaudioside E]	–	–	–	–	2.93	4.53	1.55	2.98	6.29	2.11	–	–
C=C1C[C@@]23CC[C@H]4[C@@](C)(CCC[C@@]4(C)C(=O)O[C@@H]4O[C@H](CO)[C@@H](O)[C@H](O)[C@H]4O)[C@@H]2CC[C@]1(O[C@@H]1O[C@H](CO)[C@@H](O)[C@H](O[C@@H]2O[C@H](CO)[C@@H](O)[C@H](O)[C@H]2O)[C@H]1O)C3 [Reb G, Rebaudioside G]	–	–	–	–	2.53	2.17	0.86	2.30	1.98	0.84	–	–
C=C1C[C@@]23CC[C@H]4[C@@](C)(CCC[C@@]4(C)C(=O)O[C@@H]4O[C@H](CO)[C@@H](O)[C@H](O[C@@H]5O[C@H](CO)[C@@H](O)[C@H](O)[C@H]5O)[C@H]4O[C@@H]4O[C@H](CO)[C@@H](O)[C@H](O)[C@H]4O)[C@@H]2CC[C@]1(O[C@@H]1O[C@H](CO)[C@@H](O)[C@H](O[C@@H]2O[C@H](CO)[C@@H](O)[C@H](O)[C@H]2O)[C@H]1O[C@@H]1O[C@H](CO)[C@@H](O)[C@H](O)[C@H]1O)C3 [Reb M, Rebaudioside M]	7.7	3.8	8.4	4.2	3.65	7.76	2.14	3.76	8.38	2.26	–	–
C=C1C[C@@]23CC[C@H]4[C@@](C)(CCC[C@@]4(C)C(=O)O[C@@H]4O[C@H](CO)[C@@H](O)[C@H](O[C@@H]5O[C@H](CO)[C@@H](O)[C@H](O)[C@H]5O)[C@H]4O[C@@H]4O[C@@H](C)[C@H](O)[C@@H](O)[C@H]4O)[C@@H]2CC[C@]1(O[C@@H]1O[C@H](CO)[C@@H](O)[C@H](O[C@@H]2O[C@H](CO)[C@@H](O)[C@H](O)[C@H]2O)[C@H]1O[C@@H]1O[C@H](CO)[C@@H](O)[C@H](O)[C@H]1O)C3 [Reb N, Rebaudioside N]	–	–	–	–	3.03	7.44	2.45	3.25	7.709	2.37	–	–
C=C1C[C@@]23CC[C@H]4[C@@](C)(CCC[C@@]4(C)C(=O)O[C@@H]4O[C@H](CO)[C@@H](O)[C@H](O[C@@H]5O[C@H](CO)[C@@H](O)[C@H](O)[C@H]5O)[C@H]4O[C@@H]4O[C@@H](C)[C@H](O)[C@@H](O[C@@H]5O[C@H](CO)[C@@H](O)[C@H](O)[C@H]5O)[C@H]4O)[C@@H]2CC[C@]1(O[C@@H]1O[C@H](CO)[C@@H](O)[C@H](O[C@@H]2O[C@H](CO)[C@@H](O)[C@H](O)[C@H]2O)[C@H]1O[C@@H]1O[C@H](CO)[C@@H](O)[C@H](O)[C@H]1O)C3 [Reb O, Rebaudioside O]	–	–	–	–	2.98	7.47	2.51	3.23	7.669	2.37	3.1	7.2
